Key:
[1] = tested on: RC-K8; assay: Combination of EPZ-6438 and other therapeutic agents (4+3 model), RC-K8; conditions: WT EXH2 ABC
[2] = tested on: SU-DHL-6; assay: Combination of EPZ-6438 and other therapeutic agents (4+3 model), SU-DHL-6; conditions: Mutant EZH2 GCB
[3] = tested on: OCI-LY19; assay: Combination of EPZ-6438 and other therapeutic agents (4+3 model), OCI-LY19; conditions: WT EZH2 GCB; 4+3 model
[4] = tested on: OCI-LY3; assay: Combination of EPZ-6438 and other therapeutic agents (4+3 model), OCI-LY3; conditions: WT EXH2 ABC
[5] = tested on: WSU-DLCL2; assay: Combination of EPZ-6438 and other therapeutic agents (4+3 model), WSU-DLCL2; conditions: Mutant EZH2 GCB; EPZ-6438 4 days then co-treatment 3 days (4+3 model)
[6] = tested on: KARPAS-422; assay: Combination of EPZ-6438 and other therapeutic agents (4+3 model), KARPAS-422; conditions: Mutant EZH2 GCB
[7] = tested on: SU-DHL-10; assay: Combination of EPZ-6438 and other therapeutic agents (4+3 model), SU-DHL-10; conditions: Mutant EZH2 GCB
[8] = tested on: SUDHL5; assay: Combination of EPZ-6438 and other therapeutic agents (4+3 model), SUDHL5; conditions: WT EZH2 GCB
[9] = tested on: TMD8; assay: Combination of EPZ-6438 and other therapeutic agents (4+3 model), TMD8; conditions: WT EXH2 ABC
[10] = tested on: SUDHL2; assay: Combination of EPZ-6438 and other therapeutic agents (4+3 model), SUDHL2; conditions: WT EXH2 ABC
[11] = tested on: DOHH2; assay: Combination of EPZ-6438 and other therapeutic agents (4+3 model), DOHH2; format: cell-based; conditions: WT EZH2 GCB
[12] = tested on: Farage; assay: Combination of EPZ-6438 and other therapeutic agents (4+3 model), Farage; conditions: WT EZH2 GCB
[13] = tested on: OCI-LY7; assay: Combination of EPZ-6438 and other therapeutic agents (4+3 model), OCI-LY7; conditions: WT EZH2 GCB
[14] = tested on: HT; assay: Combination of EPZ-6438 and other therapeutic agents (4+3 model), HT; conditions: WT EZH2 GCB

Compound	combination effect with EPZ-6438, SU-DHL-6 [2]	combination effect with EPZ-6438, WSU-DLCL2 [5]	combination effect with EPZ-6438, KARPAS-422 [6]	combination effect with EPZ-6438, SU-DHL-10 [7]	combination effect with EPZ-6438, SUDHL5 [8]	also measured
CC1(C)CCC(CN2CCN(c3ccc(C(=O)NS(=O)(=O)c4ccc(NCC5CCOCC5)c([N+](=O)[O-])c4)c(Oc4cnc5[nH]ccc5c4)c3)CC2)=C(c2ccc(Cl)cc2)C1 [ABT-199]	ADD.	S	S	ADD.	–	combination effect with EPZ-6438, RC-K8 [1]: S; combination effect with EPZ-6438, OCI-LY19 [3]: S; combination effect with EPZ-6438, OCI-LY3 [4]: S
COc1cc(Nc2ncc3c(n2)-c2ccc(Cl)cc2C(c2c(F)cccc2OC)=NC3)ccc1C(=O)O [Alisertib]	–	ADD.	–	ADD.	ADD.	–
Cc1nc(Nc2ncc(C(=O)Nc3c(C)cccc3Cl)s2)cc(N2CCN(CCO)CC2)n1 [Dasatinib]	–	S	–	S	S	combination effect with EPZ-6438, TMD8 [9]: S
Cn1cc(C2=C(c3cn(C4CCN(Cc5ccccn5)CC4)c4ccccc34)C(=O)NC2=O)c2ccccc21 [Enzastaurin]	–	ADD.	–	S	ADD.	–
COc1cc([C@@H]2c3cc4c(cc3[C@@H](O[C@@H]3O[C@@H]5CO[C@@H](C)O[C@H]5[C@H](O)[C@H]3O)[C@H]3COC(=O)[C@H]23)OCO4)cc(OC)c1O [Etoposide]	–	S	S	–	S	–
Cc1cnc(Nc2ccc(OCCN3CCCC3)cc2)nc1Nc1cccc(S(=O)(=O)NC(C)(C)C)c1 [Fedratinib]	–	–	–	–	–	combination effect with EPZ-6438, SUDHL2 [10]: ADD.
CC(C)NC[C@@H](C(=O)N1CCN(c2ncnc3c2[C@H](C)C[C@H]3O)CC1)c1ccc(Cl)cc1 [GDC0068, Ipatasertib]	–	S	S	–	S	–
CCn1c(-c2nonc2N)nc2c(C#CC(C)(C)O)ncc(OC[C@H]3CCCNC3)c21 [GSK690693]	–	S	S	–	S	–
CCn1cc(-c2ccnc3[nH]c(-c4cccc(CN(C)C)c4)cc23)c(-c2ccc(NC(=O)N(C)C)cc2)n1 [GSK1070916]	–	S	–	ADD.	–	–
COc1ncc(-c2ccc3nccc(-c4ccnnc4)c3c2)cc1NS(=O)(=O)c1ccc(F)cc1F [GSK2126458, Omipalisib]	–	S	S	–	S	–
CCOC(=O)CCNc1cc(N2CCc3ccccc3CC2)nc(-c2ccccn2)n1 [GSK J4]	ADD.	ADD.	–	–	–	combination effect with EPZ-6438, RC-K8 [1]: ADD.; combination effect with EPZ-6438, OCI-LY19 [3]: ADD.; combination effect with EPZ-6438, SUDHL2 [10]: ADD.; combination effect with EPZ-6438, DOHH2 [11]: ADD.
CC[C@H](Nc1ncnc2[nH]cnc12)c1nc2cccc(F)c2c(=O)n1-c1ccccc1 [Idelalisib]	S	S	S	S	S	combination effect with EPZ-6438, TMD8 [9]: S; combination effect with EPZ-6438, RC-K8 [1]: S; combination effect with EPZ-6438, Farage [12]: S; combination effect with EPZ-6438, OCI-LY7 [13]: S; combination effect with EPZ-6438, HT [14]: S; combination effect with EPZ-6438, OCI-LY3 [4]: S
Cc1sc2c(c1C)C(c1ccc(Cl)cc1)=N[C@@H](CC(=O)OC(C)(C)C)c1nnc(C)n1-2 [JQ1]	S	S	S	–	–	combination effect with EPZ-6438, RC-K8 [1]: S; combination effect with EPZ-6438, OCI-LY19 [3]: S; combination effect with EPZ-6438, SUDHL2 [10]: S
Nc1cccc2c1CN(C1CCC(=O)NC1=O)C2=O (centres unmarked) [Lenalidomide]	–	–	–	–	–	combination effect with EPZ-6438, RC-K8 [1]: S
CN(Cc1cnc2nc(N)nc(N)c2n1)c1ccc(C(=O)N[C@@H](CCC(=O)O)C(=O)O)cc1 [Methotrexate]	–	ANTAG.	–	–	–	combination effect with EPZ-6438, RC-K8 [1]: ANTAG.; combination effect with EPZ-6438, OCI-LY19 [3]: ANTAG.; combination effect with EPZ-6438, SUDHL2 [10]: ANTAG.; combination effect with EPZ-6438, DOHH2 [11]: ANTAG.
CC1(C)CCC(c2ccc(Cl)cc2)=C(CN2CCN(c3ccc(C(=O)NS(=O)(=O)c4ccc(N[C@H](CCN5CCOCC5)CSc5ccccc5)c(S(=O)(=O)C(F)(F)F)c4)cc3)CC2)C1 [Navitoclax]	S	S	S	S	–	combination effect with EPZ-6438, RC-K8 [1]: S; combination effect with EPZ-6438, OCI-LY7 [13]: S; combination effect with EPZ-6438, OCI-LY19 [3]: S; combination effect with EPZ-6438, OCI-LY3 [4]: S
COC1=CC(c2cc3ccccc3[nH]2)=N/C1=C\c1[nH]c(C)cc1C [Obatoclax]	ADD.	ADD.	S	ADD.	–	–
CC(=O)c1c(C)c2cnc(Nc3ccc(N4CCNCC4)cn3)nc2n(C2CCCC2)c1=O [Palbociclib]	–	S	S	–	S	–
CN(C)C(=O)c1cc2cnc(Nc3ccc(N4CCNCC4)cn3)nc2n1C1CCCC1 [Ribociclib]	–	S	S	–	S	–
N#CC[C@H](C1CCCC1)n1cc(-c2ncnc3[nH]ccc23)cn1 [Ruxolitinib]	–	–	–	S	–	combination effect with EPZ-6438, TMD8 [9]: S
CNC(=O)c1cc(Oc2ccc(NC(=O)Nc3ccc(Cl)c(C(F)(F)F)c3)cc2)ccn1 [Sorafenib]	–	ADD.	–	–	–	–
CC(=O)Nc1cccc(-n2c(=O)n(C3CC3)c(=O)c3c(Nc4ccc(I)cc4F)n(C)c(=O)c(C)c32)c1 [Trametinib]	S	S	S	S	S	combination effect with EPZ-6438, TMD8 [9]: S; combination effect with EPZ-6438, Farage [12]: S; combination effect with EPZ-6438, OCI-LY7 [13]: S; combination effect with EPZ-6438, OCI-LY3 [4]: S
CC(C)C[C@H](NC(=O)[C@H](Cc1ccccc1)NC(=O)c1cnccn1)B(O)O [Velcade]	ADD.	ADD.	–	ADD.	–	–
CCCS(=O)(=O)Nc1ccc(F)c(C(=O)c2c[nH]c3ncc(-c4ccc(Cl)cc4)cc23)c1F [Vemurafenib]	–	ADD.	–	–	–	–
OG-L002	–	–	–	–	–	combination effect with EPZ-6438, SUDHL2 [10]: ANTAG.
Rituximab: therapeutic agent combined with EPZ-6438; component of R-CHOP	S	S	–	–	–	–
